Source: US20110306650A1 (Chiesi Farmaceutici S.p.A., priority 2010, published 2011)

Assay: compatibility with other active ingredients in pharmaceutical formulations
Assay type: physicochemical
Conditions: especially with formoterol; relative to glycopyrronium bromide

- compatibility with other active ingredients: better compatibility
Structure (SMILES): C[N+]1(C)CCC(OC(=O)C(O)(c2ccccc2)C2CCCC2)C1.[Cl-] (stereo not shown) [glycopyrronium chloride]
